Reference: patent US8575310B2, “Bioactive pentapeptides from rice bran and use thereof” (Board of Trustees of the University of Arkansas, priority 2009, dated 2013)
No end group written: not given here.

Experiments:
Format in all cases: cell-based, human
Caco-2 cells = experiment: Trypan blue dye exclusion assay, viability of Caco-2 cells; conditions: 200 μM concentration
Procedure: Human Cancer Cell Cultures. Human colon epithelial cancer cell line Caco-2, liver epithelial cancer cell line HepG2 and breast epithelial cancer cell line HTB-26 were cultured separately at 37° C. in Dulbecco's Modified Eagles Medium (DMEM) in the presence of 10% fetal bovine serum, supplemented with 1 mM L-glutamine, sodium pyruvate, 1 mM sodium bicarbonate, and 50 μg/mL gentamycin. Human lung epithelial cancer cell line NCI-H1299 was cultured in RPMI-1640 medium supplemented with 10% fetal bovine serum. After cell growth reached 70%, cell viability was monitored by employing the trypan blue dye exclusion assay after peptide treatments. Briefly, the monolayer was allowed to grow for 2-3 days at 37° C. on 24-well flat-bottom plates. One hundred microliters (100 μL) of rice bran peptide fractions at 1 mg/mL protein content was added to the cultures. For positive control genistein at 200 and 400 μM in saline and for negative control saline alone was used. After 24-48 h of treatments, the medium was removed, and the cells were briefly dissociated with 0.1% trypsin and 0.53 mM ethylenediaminetetraacetic acid (EDTA) solution. Following this, 0.5% trypan blue dye mixed in growth medium was added to each well. Samples were then aspirated from each well and loaded onto chambers in a hemocytometer cell, and cell counts were taken. […]

[1] = test system: amyloid-induced neuroblastoma cells (IMR-32); experiment: Protection against amyloid beta (1-42) toxicity in neuroblastoma cells, MTS assay; conditions: compared to amyloid-induced cells not treated with peptides
Procedure: Evaluation of Anti-Alzheimer's Disease Activity: Human neuroblastoma cells (IMR-32-ATCC Number CCL-127) was used as model system to evaluate the protective role of rice bran peptide fractions against amyloid beta (1-42) (Cat. No. PP69, EMD Chemicals, Inc., San Diego, Calif.) dependent toxicity. Human neuroblastoma cells were grown in the presence of beta amyloid peptide with and without bran peptide fractions at different levels. Cell survival to the amyloid-induced neuroblastoma cells upon bran peptide treatments was examined by the MTS [(3-(4,5-dimethylthiazole-2-yl)-5-(3-carboxymethoxyphenyl)-2-(4-sulfophenyl)-2H-tetrazolium, inner salt] assay, and compared to the cytotoxicity observed with amyloid-induced neuroblastoma cells.
Neuroblastoma cells were treated with amyloid peptide followed by treatment with rice bran peptide fractions. Cytotoxicity to the amyloid-induced neuroblastoma cells was examined by the MTS assay.

colon cancer cells = conditions: pH 7
Procedure: An RSM design with a 3-factorial model was designed to use combinations of pH, RH (relative humidity), temperature and degree of glycosylation to evaluate enhanced anti-cancer activity of a modified (glycosylated) peptide. Peptide-glucose mixture samples were prepared at the following conditions/combinations: RH 55, 65, & 75 at pHs 6, 7 and 8 maintained at 40, 50 and 60° C. temperatures and tested for growth inhibition activity on colon cancer cells. The degree of glycosylation increased with increasing time at varying RH, and achieved a maximum of ˜20% degree of glycosylation.
Optimization for Degree of Glycosylation: The bioactive pentapeptide (0.02 g) (SEQ ID NO: 1) and D-glucose (0.002 g) were dissolved in water to give a 10% (w/v) protein solution. The solution pH was adjusted to varying pHs based on RSM design (6, 7, 8) and stirred for 10 min, and freeze-dried. The freeze-dried mixture was placed on an aluminum plate, and incubated at 50° C. at varying relative humidity ([…], 65%, 75%) based on the RSM design illustrated below in Table 3.

Row | Compound | viable cells on Caco-2 cell line (Caco-2 cells) | reduction in cytotoxicity of amyloid-induced neuroblastoma cells [1] | cancer cell activity inhibition (colon cancer cells)
1 | O=c1c(-c2ccc(O)cc2)coc2cc(O)cc(O)c12 [Genistein] | 20000 viable cells/mL |  | 
2 | EQRPR [bioactive pentapeptide, Glu-Gln-Arg-Pro-Arg] |  | ~45% | ~80%
